What is called pIC50 is the IC50 on a negative log10 scale, so that one unit is a factor of ten.

The results in this text go back to paper PMC9698716, “From Serendipity to Rational Identification of the 5,6,7,8-Tetrahydrobenzo[4,5]thieno[2,3-d]pyrimidin-4(3H)-one Core as a New Chemotype of AKT1 Inhibitors for Acute Myeloid Leukemia” (Pharmaceutics, 2022).

Structures are written as SMILES. pIC50: −log10 of the molar value.

Holding throughout (experiment): CellTiter Blue cell viability assay
Assay type in all cases: cell-based, human
On the technique in general: The colour change of resazurin is a common sign of viable cells or microbes.

For test [1], the system named is OCI-AML3. The conditions noted are these: Homo sapiens, OCI-AML-3; OCI-AML3, 48 h; read-out: cellular IC50. The source says: (§1) The human AML cell lines, OCI-AML3 (carrying the NPM1 gene mutation A and the DNMT3A^R882C mutation), IMS-M2 (carrying the NPM1 gene mutation A), OCI-AML2 (with the wild-type NPM1 and DNMT3A^R635W mutation), and SKM-1 and MOLM-13 (with the wild-type NPM1) were previously reported. The cell lines were purchased from the Deutsche Sammelung von Mikroorganismen und Zellkulturen (DSMZ) (Braunschweig, Germany) cell bank and maintained according to the vendors’ instructions. Briefly, cultured cells were split every 3 days and maintained in an exponential growth phase. The cell lines were tested for mycoplasma using the Universal Mycoplasma Detection Kit (ATCC). The OCI-AML3 were grown in α-MEM supplemented with 20% fetal bovine serum, 100 U/mL penicillin, and 100 μg/mL streptomycin (P/S), and all other cell lines were cultured in RPMI and supplemented with a 10–20% fetal bovine serum and 100 U/mL penicillin and 100 μg/mL streptomycin. The cells were kept at 37 °C in a 5% CO2 incubator. Prior to screening, the appropriate cell concentration for all cell lines was determined. For the cell lines’ treatments, cells were maintained as follows: OCI-AML3 at 0.25 × 10^6/mL, OCI-AML2 and IMS-M2 at 0.35 × 10^6/mL, and SKM-1 and MOLM-13 at 0.5 × 10^6/mL. The compounds were re-suspended at 10 mM stock in DMSO. Further dilutions were performed in phosphate-buffer-saline (PBS) for pharmacological experiments. The cells were exposed to compounds at different concentrations for the indicated time points and sampled as described below. Briefly, the cells (4 × 10^5/mL) were seeded in 384-well plate and treated for 48 h with various concentrations (0.001 μM to 100 μM) of either one of the compounds, T101, T126, and T159, or NSC348884, as a positive control. Each plate included DMSO at 0.1% as a negative control. The metabolic cell activity was measured by using the CellTiter Blue proliferation agent (Roche) as described in the manufacturer’s procedure. Briefly, CellTiter Blue solution (Resazaurin) was added to each well and the plates were incubated at 37 °C with 5% CO2 for 4 h. During the incubation time, the resazurin is reduced to fluorescent resorufin in metabolically and proliferating living cells. The fluorescence intensity was measured using the automated Tecan plate reader (Tecan Group Ltd., Männedorf, Switzerland) at an excitation/emission wavelength of 531/572 nm. The fluorescence readouts were reported as relative fluorescence units (RFU) and read on a luminescence plate reader (Infinite 200 Pro, Tecan, CA, USA). The dose response curves ([…] (IC50)) were obtained by non-linear regression analysis using the GraphPad Prism 5.0 program. The concentration is shown as a logarithmic function. All the experiments were performed at least in triplicate, with technical repetition. The results are expressed as mean ± standard error of the mean (SEM). For the Colony Forming Unit (CFU) assay, 10 × 10^6 CD34+ human hematopoietic progenitors were received from unique healthy donors, upon signed informed consent, and were cultured in SFEM II (Serum-free medium) and P/S at a density of 1 × 10^6/mL with cytokines that are important for cell division and self-renewal: fms-like tyrosine kinase 3 (FLT3)-ligand, FLT3L (100 ng/mL), Stem Cell Factor, SCF (100 ng/mL) and Trombopoietin, and TPO (50 ng/mL) for 48 h before plating them on a Methocult medium.

Test [2] deals with SKM-1. The conditions noted are these: Homo sapiens, SKM-1, 48 h; read-out: cellular IC50.
Text: as §1

The subject of test [3] is MOLM-13. As to conditions: Homo sapiens, MOLM-13, 48 h; read-out: cellular IC50.
Text: as §1

The subject of test [4] is IMS-M2. As to conditions: Homo sapiens, IMS-M2, 48 h; read-out: cellular IC50.
Text: as §1

For test [5], the system named is OCI-AML2. The conditions noted are these: Homo sapiens, OCI-AML2, 48 h; read-out: cellular IC50.
Text: as §1

With `O=c1[nH]c(-c2ccc(O)c(O)c2)nc2sc3c(c12)CCCC3` [T126], the pIC50 was 5.38 in test [1]; 5.16 in test [2]; 5.04 in test [3]; 5.37 in test [4]; 5.62 in test [5].
